Reference: patent US20060223846A1, “Aza-bridged-bicyclic amino acid derivatives as alpha4 integrin antagonists” (priority 2005, published 2006)

Test system: α4β7 integrin-positive cells
Experiment: Intraperitoneal Delayed Type Hypersensitivity (IP-DTH) Response, ovalbumin challenge
Type: in vivo
Settings: 80 mg/kg, sc, qd × 2; mice, 48 hours after antigen challenge
Text: Intraperitoneal Delayed Type Hypersensitivity (IP-DTH) Response. A Method for Analyzing Effects of Integrin Antagonists In Vivo
Background: Integrin antagonists are meant to interfere with the binding or adhesion of immune cells, such as lymphocytes, monocytes and eosinophils that bear integrin receptors to counter-receptors that exist on endothelial cells in the vasculature. Among those integrin-bearing cells, cells that are positive for α4β7 integrin are found in the mesenteric system and in the gut, and would comprise many of the cells recruited to a peritoneal antigen challenge. One can maximize the number of α4β7 integrin-positive cells recruited by inducing an intraperitoneal delayed type hypersensitivity response to antigen that will recruite antigen-responsive cells from the mesenteric lymph nodes. An inhibitor of α4β7 integrin should prevent the recruitment of these cells to the site of antigen challenge. […]
The cells were stained with fluorochrome-coupled antibody to α4β7 integrin or a primary antibody to α4β7 integrin followed by a secondary fluorochrome-coupled antibody. […] The cells were then transferred to test tubes and maintained at 4° C. until analyzed by flow cytometry to determine numbers of α4β7-postive cells. […]

Row | SMILES | Percent Decrease in recruited α4β7+ cells [%]
1 | CC(C)(C)CCN1C2CCC(CC2)[C@H]1C(=O)N[C@@H](Cc1ccc(NC(=O)c2c(Cl)cncc2Cl)cc1)C(=O)O [Cpd 16, 3-{4-[(3,5-dichloro-pyridine-4-carbonyl)-amino]-phenyl}-2-{[2-(3,3-dimethyl-butyl)-2-aza-bicyclo[2.2.2]octane-3-carbonyl]-amino}-propionic acid] | 56
2 | O=C(Nc1ccc(CC(NC(=O)C2C3CCC(CC3)N2C(=O)Cc2ccsc2)C(=O)O)cc1)c1c(Cl)cncc1Cl (centres unmarked) [Cpd 3] | 20
